# Measured values reported in patent publication US20170340636A1, “COMPOSITIONS AND METHODS FOR INHIBITION OF AUTOPHAGY” (Board of Regents, The University of Texas System, priority 2016, published 2017).
# What was measured:
# TAOK2 [1] = molecular target: T1, TAOK2 (Rattus norvegicus, UniProt Q9JLS3); test: Radiometric kinase assay; type: biochemical; settings: determined radiometrically; MBP, γ-labeled ATP
# T1 construct: made in house
# T1 sequence (Q9JLS3 1-320 limits assumed): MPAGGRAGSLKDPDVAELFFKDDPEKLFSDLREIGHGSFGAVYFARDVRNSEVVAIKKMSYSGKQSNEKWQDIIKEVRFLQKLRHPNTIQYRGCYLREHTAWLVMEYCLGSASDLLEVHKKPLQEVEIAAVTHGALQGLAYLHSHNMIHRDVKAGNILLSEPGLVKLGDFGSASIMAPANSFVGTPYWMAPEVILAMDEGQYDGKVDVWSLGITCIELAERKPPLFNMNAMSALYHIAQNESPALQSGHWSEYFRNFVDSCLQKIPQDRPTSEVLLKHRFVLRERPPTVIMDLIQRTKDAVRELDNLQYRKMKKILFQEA
# Procedure: Radiometric activity assays of selected compounds against TAOK2 were conducted. A reaction solution of 0.02 mg/ml TAOK2, 50 mM MgCl2, 50 mM HEPES pH 7.5, 1 mg/ml MBP, and increasing compound concentration was made. The compound/DMSO solution was 5% by volume in the final reaction mixture. An ATP solution of 1:20 0.1 μCi/ml 32P -labeled ATP:1 mg/ml ATP was made. 10 μl of ATP solution was added to 50 μl of reaction solution, and allowed to react for 30 minutes. Reactions were stopped by blotting onto filter paper, then submerging in10% trifluoroacetic acid (TFA). Samples were washed 4 times in TFA, then put into scintillation vials. 5 ml Complete Counting Cocktail 3a70B (Research Products International Corp.) was added, and the vials were counted on a Beckman scintillation counter for 10 minutes.
# Compounds SW034538 and SW083688 were both selective in the DSF measurements and effective in the GFP-LC3 degradation assays. These compounds were then chosen for radiometric analysis to determine their IC50 values (Table 1). TAOK2 was incubated with inhibitor, MBP, and γ-labeled ATP and allowed to react for 10 minutes. The concentrations of MBP and ATP were chosen such that the reaction was kept in the linear range for the duration of the experiment. […] IC50 value estimates were calculated from the results of the 200 k rescreen described above. […]
# TAOK2 [2] = molecular target: T1, TAOK2; test: Kinase-Glo high-throughput screen / re-screen of TAOK2 activity (MBP substrate); type: biochemical; settings: estimate from HTS re-screen at 1, 3.3 and 10 μM
# Procedure: TAOK2 activity was screened in a high-throughput fashion using Kinase-Glo (Promega). A 20 μL, solution of 50 mM HEPES pH 7.4, 50 mM MgCl2, 1.27 mg/ml MBP and 0.005 mg/ml TAOK2 was added to each well of a 384 well Corning plate using a Biotek MultiFlo dispenser. 0.2 μl of compound (columns 3 to 22, 50 μM), DMSO negative control (columns 2, 23, and 24), or staurosporine positive control (column 1, 43.4 μM) were then added to each well with a Biomek Liquid handler. 10 μl of 50 μg/ml ATP solution was added to each well with a Labsystems Multidrop384. The plates were incubated at RT for 100 minutes. 20 μl Kinase Glo (Promega) was added to each well, and allowed to incubate for 10minutes under agitation. Luminescence was read on an Envision Multilabel plate reader.
# After cherry picking primary hits, the selected compounds were assayed in a limited dose-response format (10, 3.3, and 1 μM) in triplicate using the primary enzymatic assay for TAOK2. The data for each assay well was normalized to the neutral controls. The normalized activity values (replicates) for each compound in each assay were then condensed to a single value (condensed activity) using the “Robust Condensing” method in Genedata Screener®. The condensed activity is the most representative single value of the triplicates. In general, the triplicates were pre-condensed into a pair of values as follows:
# In order to study the relationship between TAOK2 and both cancer and autophagy, a high-throughput screen was performed using a 200,000 compound library to discover novel small-molecule kinase inhibitors (FIG. 1A-D). Phosphorylation reactions were performed in a 384 well format against the generic kinase substrate Myelin Basic Protein (MBP) with the addition of compound. Kinase-Glo (Promega) was then added to each well to detect remaining ATP concentration. Thus, inhibitory compounds would decrease TAOK2 activity, which would increase both remaining ATP concentration and luminescence in those wells.
# After the initial screen, 1645 compounds were identified with inhibition greater than three σ above the mean DMSO control (FIG. 1A). The Z′ factor of the initial screen across all plates was 0.77, indicating high significance (FIG. 1B). These compounds were then re-screened in triplicate under the same conditions, with the compounds being assayed at three concentrations (1 μM, 3.3 μM, and 10 μM, FIG. 1C, D). 432 compounds were identified after the re-screen with average inhibitions greater than 10 sigma at the 10 μM concentration. The Z′ factor of the confirmation screen was 0.52, again indicating high significance.
IC50 (TAOK2 [1]) [nM],IC50 (TAOK2 [2]) [nM],Compound
1300,,CCOCCCn1c(=S)[nH]c2cc(C(=O)NCC3COc4ccccc4O3)ccc2c1=O (stereo not drawn) [SW083688]
300,,CCC(=O)Nc1nc(C)c(-c2csc(Nc3cc(OC)ccc3OC)n2)s1 [SW034538]
,5000,CS(=O)(=O)c1ccc2nc(NC(=O)CCCOc3ccc(Cl)cc3)sc2c1 [SW172006]
